Measurements published in the supplement of paper PMC12420376.

How the values were obtained:
OVCAR8 = assay: drug sensitivity score (DSS2) on cancer cell count; higher = more sensitive; extreme values may be limits of the assay; conditions: 72 h
Procedure, shortened: (§1)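 Ovarian cancer cells grown alone or 1:1 with lung or skin fibroblasts in direct co-culture were treated for 72 h on 384-well plates carrying 528 approved and investigational compounds at 5 concentrations. Fixed cells were stained for CK8/18 with Hoechst and imaged to count cancer cells. A drug sensitivity score was then derived in Breeze from logistic curve fits.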

KURAMOCHI = assay: as above; conditions: 72 h
Procedure, shortened: as §1

[1] = co-cultured fibroblast: BJHTERT
[2] = co-cultured fibroblast: none (monoculture)

Structure (SMILES) | drug sensitivity score (OVCAR8; [1]) | drug sensitivity score (OVCAR8; co-cultured fibroblast: WI38) | drug sensitivity score (OVCAR8; [2]) | drug sensitivity score (KURAMOCHI; [1]) | drug sensitivity score (KURAMOCHI; co-cultured fibroblast: WI38) | drug sensitivity score (KURAMOCHI; [2])
O=C(Nc1ccc2[nH]nc(-c3ccncc3)c2c1)[C@@H]1CCN(CC(=O)N2CCN(c3ccc(-c4ncccn4)cc3)CC2)C1 | 16.6 DSS | 10.2 DSS | 15.5 DSS | 13.5 DSS | 12.4 DSS | 15.5 DSS
CCS(=O)(=O)Nc1ccc(Oc2ccc(F)cc2F)c(-c2cn(C)c(=O)c3[nH]ccc23)c1 [Mivebresib] | 35.4 DSS | 26.9 DSS | 30.9 DSS | 22.6 DSS | 21.7 DSS | 17.5 DSS
CC(C)c1cc(C(=O)N2Cc3ccc(CN4CCN(C)CC4)cc3C2)c(O)cc1O [Onalespib] | 17.4 DSS | 18.5 DSS | 23.5 DSS | 13 DSS | 14.6 DSS | 14.9 DSS
C[C@H]1CNCCCN1S(=O)(=O)c1cccc2cncc(F)c12 [Ripasudil] | 3 DSS | 6.9 DSS | 0.2 DSS | 1.8 DSS | 0 DSS | 0.4 DSS
CCN1C(=O)CNc2ncc(-c3ccc(-c4nc[nH]n4)nc3C)nc21 [CC-115] | 20.1 DSS | 4.8 DSS | 8.7 DSS | 6.9 DSS | 5.7 DSS | 15.1 DSS
CN(C)C(=O)c1cc2cnc(Nc3ccc(N4CCNCC4)cn3)nc2n1C1CCCC1 [Ribociclib] | 3.9 DSS | 0 DSS | 0 DSS | 0 DSS | 3.9 DSS | 5.2 DSS
O=S(=O)(c1cccc2c(O)nccc12)N1CCCNCC1 [Hydroxyfasudil] | 0 DSS | 1.2 DSS | 0 DSS | 0 DSS | 1 DSS | 2 DSS
Nc1cc(C(F)(F)F)c(-c2cc(N3CCOCC3)nc(N3CCOCC3)n2)cn1 [Buparlisib] | 6.9 DSS | 3.4 DSS | 9.3 DSS | 9.1 DSS | 8 DSS | 7.9 DSS
CCc1c(C(=O)C(N)=O)c2c(OCC(=O)O)cccc2n1Cc1ccccc1 [Varespladib] | 0 DSS | 0 DSS | 3.4 DSS | 0 DSS | 0 DSS | 0 DSS
COc1cc(Br)c(Nc2nc(-c3c(C)nc4ncccn34)cs2)c(Br)c1 [PTC-209] | 9.1 DSS | 3.1 DSS | 6.9 DSS | 2.4 DSS | 3.6 DSS | 7.9 DSS
Oc1nc(-c2ccc(C(F)(F)F)cc2)nc2c1CSCC2 [XAV-939] | 0.6 DSS | 0.1 DSS | 0.3 DSS | 1.1 DSS | 0 DSS | 0.5 DSS
O=C(NC[C@H](O)CN1CCc2ccccc2C1)c1cc(NC2COC2)ncn1 | 0 DSS | 0 DSS | 0 DSS | 0.1 DSS | 0 DSS | 0 DSS
O=C(O)C(=O)O.[NH-][C@@H]1CCCC[C@H]1[NH-].[Pt+2] [Oxaliplatin] | 13.9 DSS | 19.6 DSS | 18.2 DSS | 9.3 DSS | 16 DSS | 18.1 DSS
C[C@@H]1CN(C(=O)c2ccc(NC(=O)c3cc(O[C@H](C)c4c(Cl)ccc(F)c4Cl)c(N)nn3)cc2)C[C@H](C)N1 [Ensartinib] | 0 DSS | 0.1 DSS | 0 DSS | 1 DSS | 1 DSS | 0 DSS
CO[C@H]1CC[C@H](N2C(=O)CNc3ncc(-c4ccc(C(C)(C)O)nc4)nc32)CC1 [CC-223] | 5 DSS | 1.6 DSS | 7.6 DSS | 6.8 DSS | 5.7 DSS | 4.7 DSS
Nc1nc(NC2CC2)cc(-c2cccc(Cl)c2Cl)n1 [TH588] | 7.4 DSS | 4.5 DSS | 3.3 DSS | 6 DSS | 6.7 DSS | 6.5 DSS
COc1ncc(-c2ccc3nccc(-c4ccnnc4)c3c2)cc1NS(=O)(=O)c1ccc(F)cc1F [Omipalisib] | 8.9 DSS | 6.5 DSS | 13 DSS | 17.1 DSS | 17.9 DSS | 12.1 DSS
CC(C)Nc1cc(-c2c[nH]c(C(=O)N[C@H](CO)c3cccc(Cl)c3)c2)c(Cl)cn1 [Ulixertinib] | 8.8 DSS | 13.9 DSS | 11 DSS | 9.7 DSS | 9.6 DSS | 12.2 DSS
Nc1nc2[nH]cc(CCc3ccc(C(=O)N[C@@H](CCC(=O)O)C(=O)O)cc3)c2c(=O)[nH]1 [Pemetrexed] | 16.4 DSS | 19.3 DSS | 25.5 DSS | 10.1 DSS | 16 DSS | 13.6 DSS
Cc1c(-c2ccc(N3CCc4cccc(C(=O)Nc5nc6ccccc6s5)c4C3)nc2C(=O)O)cnn1CC12CC3CC(CC(C3)C1)C2 | 1.6 DSS | 0 DSS | 1.6 DSS | 3 DSS | 8.2 DSS | 3.8 DSS

Structure (SMILES) | drug sensitivity score (OVCAR8; [1]) | drug sensitivity score (OVCAR8; co-cultured fibroblast: WI38) | drug sensitivity score (OVCAR8; [2]) | drug sensitivity score (KURAMOCHI; [1]) | drug sensitivity score (KURAMOCHI; co-cultured fibroblast: WI38) | drug sensitivity score (KURAMOCHI; [2])
CC(C)Oc1ccc(-c2nn([C@@H](C)c3oc4ccc(F)cc4c(=O)c3-c3cccc(F)c3)c3ncnc(N)c23)cc1F [TGR-1202] | 0 DSS | 0 DSS | 0 DSS | 0 DSS | 0 DSS | 0 DSS
O=C(Nc1cccc(NC(=O)c2cccc(O)c2O)c1)c1cccc(O)c1O [MST-312] | 10.9 DSS | 15.4 DSS | 18.1 DSS | 12 DSS | 9.8 DSS | 15.1 DSS
Cc1cc(Nc2nc(N[C@@H](C)c3ncc(F)cn3)ncc2Cl)[nH]n1 [AZD1480] | 0.4 DSS | 0 DSS | 0.4 DSS | 0.1 DSS | 0.7 DSS | 0 DSS
Nc1ncn([C@H]2C[C@H](O)[C@@H](CO)O2)c(=O)n1 [Decitabine] | 6.9 DSS | 11.4 DSS | 4.8 DSS | 0 DSS | 1.7 DSS | 0.3 DSS
O=C(c1ccc(C(=O)N2CCC(N3CCCC3)CC2)c(Nc2ccccc2)c1)N1CCC(N2CCCC2)CC1 [UNC1215] | 0 DSS | 0 DSS | 0 DSS | 0 DSS | 0 DSS | 0 DSS
COc1cc2c(N3CCN(C(=O)Nc4ccc(OC(C)C)cc4)CC3)ncnc2cc1OCCCN1CCCCC1 [Tandutinib] | 0 DSS | 0 DSS | 0 DSS | 0 DSS | 0 DSS | 0 DSS
CCS(=O)(=O)N1CCN(c2ccc(Nc3ncc(C(N)=O)c(NC4CC4)n3)cc2)CC1 [Cerdulatinib] | 0 DSS | 4.3 DSS | 1.1 DSS | 0 DSS | 4.3 DSS | 1.1 DSS
N#Cc1ccc2[nH]c(O)c(-c3ccc(CN4CCOCC4)cn3)c2c1 [AZD-1080] | 0.1 DSS | 0 DSS | 0 DSS | 0 DSS | 0 DSS | 0 DSS
CC(=O)Nc1cccc(-n2c(=O)n(C3CC3)c(=O)c3c(Nc4ccc(I)cc4F)n(C)c(=O)c(C)c32)c1 [Trametinib] | 10.7 DSS | 3.9 DSS | 13.5 DSS | 9 DSS | 7.4 DSS | 7.6 DSS
O=c1sn(-c2cccc3ccccc23)c(=O)n1Cc1ccccc1 [Tideglusib] | 0.4 DSS | 1.5 DSS | 0 DSS | 0 DSS | 0 DSS | 0 DSS
CNC(=O)c1cccc(-c2ccc3c(N4CCOC[C@@H]4C)nc(N4CCOC[C@@H]4C)nc3n2)c1 [Vistusertib] | 13.1 DSS | 7.6 DSS | 16.1 DSS | 10.6 DSS | 8.3 DSS | 7.5 DSS
COc1cccc2c1C(=O)c1c(O)c3c(c(O)c1C2=O)C[C@@](O)(/C(CO)=N/NC(=O)CCCCCN1C(=O)C=CC1=O)C[C@@H]3O[C@H]1C[C@H](N)[C@H](O)[C@H](C)O1 [Aldoxorubicin] | 12.9 DSS | 11.7 DSS | 13.1 DSS | 13.3 DSS | 13.8 DSS | 19.1 DSS
Cn1cc(C2=Nc3cc(NC(=O)C(N)C4CCCCC4)cc4c3C2=CNNC4=O)cn1 (centres undefined) | 16.2 DSS | 13 DSS | 16.7 DSS | 14.6 DSS | 12.1 DSS | 21 DSS
CC(=O)O[C@@]12CO[C@@H]1C[C@H](O)[C@@]1(C)C(=O)[C@H](O)C3=C(C)[C@@H](OC(=O)[C@H](O)[C@@H](NC(=O)OC(C)(C)C)c4ccccc4)C[C@@](O)([C@@H](OC(=O)c4ccccc4)[C@H]21)C3(C)C [Docetaxel] | 31.8 DSS | 31.9 DSS | 28.3 DSS | 27.4 DSS | 26.2 DSS | 21.1 DSS
CC1(C)C(C(=O)Nc2ccc(S(=O)(=O)c3ccc(NC(=O)C4C(C)(C)C4(C)C)cc3)cc2)C1(C)C [BRD7116] | 0 DSS | 0 DSS | 0 DSS | 0.5 DSS | 1.9 DSS | 0 DSS
COc1cc2c(cc1OC(C)C)[C@H](c1ccc(Cl)cc1)N(c1ccc(N(C)C[C@H]3CC[C@H](N4CCN(C)C(=O)C4)CC3)cc1)C(=O)C2 [NVP-CGM097] | 10.1 DSS | 11.1 DSS | 3.5 DSS | 7.7 DSS | 3.4 DSS | 5.4 DSS
CN1CCN(c2nc(C3=C(c4c[nH]c5ccccc45)C(=O)NC3=O)c3ccccc3n2)CC1 [Sotrastaurin] | 0.2 DSS | 2.6 DSS | 0 DSS | 1.1 DSS | 0.6 DSS | 12 DSS
C[C@@H]1CN(CC(=O)Nc2ccc3c(c2)Cc2cccc(-c4cc(=O)cc(N5CCOCC5)o4)c2S3)C[C@H](C)O1 | 7.6 DSS | 5.6 DSS | 0.7 DSS | 3.2 DSS | 0.2 DSS | 2.5 DSS
COc1cc2ncnc(Oc3cccc(NC(=O)Nc4cc(C(C)(C)C(F)(F)F)on4)c3)c2cc1OC | 0 DSS | 0 DSS | 0.8 DSS | 0 DSS | 1.4 DSS | 0 DSS
